# Assay results taken from PubChem BioAssay AID256 (DTP/NCI, 2004).
# Toxic doses and inconclusive results are not listed.
# Tested on: CD2F1 mice, L1210 leukemia ip, survival T/C
# Experiment: NCI In Vivo Anticancer Drug Screen. Data for tumor model L1210 Leukemia (intraperitoneal) in CD2F1 (CDF1) mice
# Conditions: higher = longer survival
# Outline: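 Transplantable tumor in mice; compound-treated vs vehicle-treated groups. Read-out = treated/control ratio of the measured endpoint.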
# [1] = endpoint: mean survival time, dose: 100.0 mg/kg/injection, schedule: Q04DX003 (ip), vehicle: saline with Tween-80
# [2] = endpoint: mean survival time, dose: 200.0 mg/kg/injection, schedule: Q04DX003 (ip), vehicle: saline with Tween-80
# [3] = endpoint: mean survival time, dose: 400.0 mg/kg/injection, schedule: Q04DX003 (ip), vehicle: saline with Tween-80
# [4] = endpoint: mean survival time, dose: 100.0 mg/kg/injection, schedule: Q01DX009 (ip), vehicle: saline with Tween-80
# [5] = endpoint: mean survival time, dose: 200.0 mg/kg/injection, schedule: Q01DX009 (ip), vehicle: saline with Tween-80
# [6] = endpoint: mean survival time, dose: 400.0 mg/kg/injection, schedule: Q01DX009 (ip), vehicle: saline with Tween-80
compound,measurement,setting,value
O=C1C2C3CCC(C3)C2N1Cc1ccccc1 (stereo unspecified),T/C,"endpoint: mean survival time, dose: 100.0 mg/kg/injection, schedule: Q04DX002 (ip), vehicle: other",93 % of control
same,T/C,"endpoint: mean survival time, dose: 200.0 mg/kg/injection, schedule: Q04DX002 (ip), vehicle: other",96 % of control
same,T/C,"endpoint: mean survival time, dose: 400.0 mg/kg/injection, schedule: Q04DX002 (ip), vehicle: other",96 % of control
CN1C(=O)CN=C(c2ccccc2)c2cc(Cl)ccc21,T/C,"endpoint: mean survival time, dose: 12.5 mg/kg/injection, schedule: Q01DX009 (ip), vehicle: Klucel (hydroxypropylcellulose) (HPC)",100 % of control
same,T/C,"endpoint: mean survival time, dose: 25.0 mg/kg/injection, schedule: Q01DX009 (ip), vehicle: Klucel (hydroxypropylcellulose) (HPC)",104 % of control
same,T/C,"endpoint: mean survival time, dose: 50.0 mg/kg/injection, schedule: Q01DX009 (ip), vehicle: Klucel (hydroxypropylcellulose) (HPC)",100 % of control
same,T/C,"endpoint: mean survival time, dose: 200.0 mg/kg/injection, schedule: Q01DX009 (ip), vehicle: Klucel (hydroxypropylcellulose) (HPC)",90 % of control
N#CCc1ccc(N=Nc2c(N)nc(N)nc2N)cc1,T/C,[1],92 % of control
same,T/C,[2],104 % of control
same,T/C,[3],101 % of control
COc1nc(Cl)nc(Cl)c1Cl (tested in a mixture with another compound),T/C,"endpoint: mean survival time, dose: 12.5 mg/kg/injection, schedule: Q01DX009 (ip), vehicle: other",93 % of control
same,T/C,"endpoint: mean survival time, dose: 25.0 mg/kg/injection, schedule: Q01DX009 (ip), vehicle: other",93 % of control
same,T/C,"endpoint: mean survival time, dose: 50.0 mg/kg/injection, schedule: Q01DX009 (ip), vehicle: other",104 % of control
COc1cc2c3cc1Oc1c(OC)c(OC)cc4c1[C@@H](Cc1ccc(O)c(c1)Oc1ccc(cc1)C[C@@H]3N(C)CC2)N(C)CC4,T/C,"endpoint: mean survival time, dose: 75.0 mg/kg/injection, schedule: Q01DX001 (ip), vehicle: other",96 % of control
same,T/C,"endpoint: mean survival time, dose: 150.0 mg/kg/injection, schedule: Q01DX001 (ip), vehicle: other",100 % of control
CC1(C)Oc2nc[nH]c(=O)c2C1c1ccccc1 (stereo unspecified),T/C,[4],115 % of control
same,T/C,[1],101 % of control
same,T/C,[5],107 % of control
same,T/C,[2],101 % of control
same,T/C,[6],98 % of control
same,T/C,[3],98 % of control
CCSC(SCC)C(O)C(O)C1COC(C)(C)O1 (stereo unspecified),T/C,"endpoint: mean survival time, dose: 100.0 mg/kg/injection, schedule: Q01DX001 (ip), vehicle: saline with Tween-80",93 % of control
same,T/C,"endpoint: mean survival time, dose: 200.0 mg/kg/injection, schedule: Q01DX001 (ip), vehicle: saline with Tween-80",93 % of control
same,T/C,"endpoint: mean survival time, dose: 400.0 mg/kg/injection, schedule: Q01DX001 (ip), vehicle: saline with Tween-80",101 % of control
O=C1CCn2c3ccccc3c3cccc1c32,T/C,[4],101 % of control
same,T/C,[5],101 % of control
same,T/C,[6],96 % of control
O=S(=O)(O)Sc1ncnc2nc[nH]c12,T/C,"endpoint: mean survival time, dose: 10.0 mg/kg/injection, schedule: Q01DX009 (ip), vehicle: saline",117 % of control
same,T/C,"endpoint: mean survival time, dose: 20.0 mg/kg/injection, schedule: Q01DX009 (ip), vehicle: saline",112 % of control
same,T/C,"endpoint: mean survival time, dose: 320.0 mg/kg/injection, schedule: Q01DX009 (ip), vehicle: saline",107 % of control
same,T/C,"endpoint: median survival time, dose: 37.5 mg/kg/injection, schedule: Q04DX003 (ip), vehicle: saline",119 % of control
same,T/C,"endpoint: median survival time, dose: 100.0 mg/kg/injection, schedule: Q01DX009 (ip), vehicle: saline",182 % of control
same,T/C,"endpoint: median survival time, dose: 200.0 mg/kg/injection, schedule: Q01DX009 (ip), vehicle: saline",154 % of control
same,T/C,"endpoint: median survival time, dose: 300.0 mg/kg/injection, schedule: Q04DX003 (ip), vehicle: saline",166 % of control
CC(=O)/C=C\C1OC(n2ccc(=O)[nH]c2=O)C2OC(C)(C)OC12 (stereo unspecified),T/C,"endpoint: mean survival time, dose: 12.5 mg/kg/injection, schedule: Q01DX005 (ip), vehicle: distilled water + Tween-80",105 % of control
same,T/C,"endpoint: mean survival time, dose: 25.0 mg/kg/injection, schedule: Q01DX005 (ip), vehicle: distilled water + Tween-80",103 % of control
same,T/C,"endpoint: mean survival time, dose: 50.0 mg/kg/injection, schedule: Q01DX005 (ip), vehicle: distilled water + Tween-80",97 % of control
same,T/C,"endpoint: mean survival time, dose: 100.0 mg/kg/injection, schedule: Q01DX005 (ip), vehicle: distilled water + Tween-80",102 % of control
same,T/C,"endpoint: mean survival time, dose: 200.0 mg/kg/injection, schedule: Q01DX005 (ip), vehicle: distilled water + Tween-80",103 % of control
c1ccc([Si]2(c3ccccc3)c3ccccc3-c3ccccc32)cc1,T/C,[4],94 % of control
same,T/C,[5],99 % of control
